Converted amounts (≈) assume the structure as drawn.
Experiments:
Type in all cases: cell-based
[1] = test system: EGFP transgenic Leishmania protozoa (LaEGFP); assay: microbe, parasite or virus in culture
Experimental: EGFP transgenic Leishmania protozoa (LaEGFP, Okuno T et al., Exp. Anim, 52: 109 (2003)) 1×10^5 cells were inoculated into a 96-well plate, and a sample diluted with a culture medium was then added and incubated for 72 hours. Subsequently, the fluorescence intensity within each well was measured using a fluorescence plate reader, and the antileishmanial activity of the test sample was calculated.

[2] = test system: Trypanosoma congolense (bloodstream form); assay: Antitrypanosomal activity test (TetraColor ONE, 48 hours)
Experimental: Trypanosoma congolense (bloodstream form) 2×10^5 cells were inoculated into a 96-well plate, and a sample diluted with a culture medium was then added and cultured for 48 hours. Subsequently, 10 μL of TetraColor ONE (Seikagaku Biobusiness Corporation) was added to each well to measure the viable cell count, and after 4 hours, the absorbance at 450 nm was measured.

[3] = test system: human cervical cancer-derived HeLa cells; assay: Cytotoxicity test (MTT), HeLa; details: isolated compound, 72 hours, read-out: IC50 value against HeLa cells
Experimental: (§1) A suspension of human cervical cancer-derived HeLa cells and mouse lymphoma-derived P388 cells (1×10^4 cells/mL) 200 μL was dispended into each well of rows A to H, columns 1 to 11 of a 96-well microplate, and the suspension was then incubated for 24 hours at 37° C. Subsequently, 2 μL of a methanol solution of the sample (1 mg/mL) was added to each well of row A, columns 1 to 10 of the 96-well microplate, and 2 μL of adriamycin (1 mg/mL) was added to the well of row A, column 11 as a positive control. Only the culture medium 200 μL was added to each well of rows A to D, column 12, and 200 μL of the aforementioned suspension of 1×10^4 cells/mL was added to each well of rows E to H, column 12. Using a multi-channel pipette, 50 μL of the culture medium was aspirated from the well of each column of row A and added to the well of the corresponding column of row B, and then 50 μL of the culture medium was aspirated from the well of each column of row B and added to the well of the corresponding column of row C. […] Following culturing for 72 hours, 50 μL of 1 mg/mL PBS solution of MTT (3-[4,5-dimethylthiazol-2-yl]-2,5-diphenyl tetrazolium bromide) was added to each well. […] For each well, the absorbance of the colorimetric substrate dissolved in the DMSO was measured using a multi-well plate reader, and the concentration at which half the cells were inhibited (IC50) was determined. […]

[4] = test system: human promyelocytic leukemia-derived HL-60 cells; assay: Cytotoxicity test (MTT), HL-60; details: isolated compound, 72 hours, read-out: IC50 value against HL-60 cells
Experimental: A suspension of human cervical cancer-derived HeLa cells, human promyelocytic leukemia-derived HL-60 cells, and mouse lymphoma-derived P388 cells (1×10^4 cells/mL) 200 μL was dispended into each well of rows A to H, columns 1 to 11 of a 96-well microplate, and the suspension was then incubated for 24 hours at 37° C. Subsequently, 2 μL of a methanol solution of the sample (1 mg/mL) was added to each well of row A, columns 1 to 10 of the 96-well microplate, and 2 μL of adriamycin (1 mg/mL) was added to the well of row A, column 11 as a positive control. Only the culture medium 200 μL was added to each well of rows A to D, column 12, and 200 μL of the aforementioned suspension of 1×10^4 cells/mL was added to each well of rows E to H, column 12. Using a multi-channel pipette, 50 μL of the culture medium was aspirated from the well of each column of row A and added to the well of the corresponding column of row B, and then 50 μL of the culture medium was aspirated from the well of each column of row B and added to the well of the corresponding column of row C. […] For each well, the absorbance of the colorimetric substrate dissolved in the DMSO was measured using a multi-well plate reader, and the concentration at which half the cells were inhibited (IC50) was determined.

[5] = test system: mouse lymphoma-derived P388 cells; assay: Cytotoxicity test (MTT), P388; details: isolated compound, 72 hours, read-out: IC50 value against P388 cells
Experimental: as §1

[6] = test system: Plasmodium falciparum K-1 strain; assay: Antiplasmodial activity test (SYBR GREEN, 48 hours); details: read-out: IC50 value against the Plasmodium falciparum K-1 strain
Experimental: Synchronized 0.5% ring stage Plasmodium falciparum K-1 strain 90 μL was added to each well of a 96-well plate, and a sample diluted with a culture medium was then added and incubated for 48 hours. Subsequently, 100 μL of a mixed solution prepared by adding 0.2 μL of SYBR GREEN to 1 mL of lysis buffer (20 mM Tris (pH 7.5), 5 mM EDTA, 0.008% (wt/vol) saponin, 0.08% (vol/vol) Triton X-100) was added to each well, and stirred with a vortex mixer. Following standing for 1 hour in a dark place, the fluorescence was measured with a fluorescence plate reader, using an excitation wavelength of 485 nm and a detection wavelength of 530 nm.

Question: For C[C@@H]1[C@H](O)[C@@H](C)/C=C/C=C/C=C/C=C/C=C/C=C/C=C/[C@H](O[C@@H]2O[C@H](C)[C@@H](O)[C@H](N)[C@@H]2O)C[C@@H]2O[C@](O)(C[C@@H](O)C[C@@H](O)[C@H](O)CC[C@@H](O)C[C@@H](O)CC(=O)O[C@H]1C)C[C@H](O)[C@H]2C(=O)O [amphotericin B, reference compound], which “IC50 value against the LaEGFP (antileishmanial activity)” value ([1]; LaEGFP, 72 hours) is on record?
Answer: approximately 20 ng/mL

Question: And the “IC50 value against the T. congolense” value [2]?
Answer: 0.811 µg/mL (≈ 0.878 µM)

Question: Which IC50 ([1]; Leishmania, 72 h, read-out: IC50 value against the LaEGFP (antileishmanial activity)) does the source give for CC(=O)O/C=C1\CCC/C(C=O)=C\C[C@@H]2C(C(=O)CC=C(C)C)=CO[C@H](OC(C)=O)[C@@H]12 [cristaxenicin A] here?
Answer: 0.036 µg/mL (≈ 0.0836 µM)

Question: What about the IC50 ([2]; Trypanosoma congolense, read-out: IC50 value against the T. congolense) of the same compound?
Answer: 0.107 µg/mL (≈ 0.249 µM)

Question: And the IC50 [3]?
Answer: 2 µg/mL (≈ 4.65 µM)

Question: And the IC50 [4]?
Answer: 0.727 µg/mL (≈ 1.69 µM)

Question: And the IC50 [5]?
Answer: 0.89 µg/mL (≈ 2.07 µM)

Question: What about the IC50 [6] of the same compound?
Answer: 4.6 µg/mL (≈ 10.7 µM)

Question: Which “antiprotozoal activity of HPLC peak fractions (in words)” value ([1]; reversed phase HPLC peak fractions) does the source give for cristaxenicin A here?
Answer: exhibited antiprotozoal activity

From patent US8722909B2, “Antiprotozoal compound derived from coelenterata” (Waseda University, priority 2010, dated 2014)
